What was measured:
[1] = tested on: Echinochloa crus-galli (ECHCG); assay: Flooded Echinochloa crus-galli, visual herbicidal damage (Biological Example 1, Test 125); assay type: in vivo; conditions: 14 DAA
Experimental: (§1) Rice seeds, variety IR-64 (an indica type of rice), were sown in seed trays. After 7 days the resulting plants were transplanted as 3 groups of 2 plants, into pots containing a standard sandy loam soil saturated with water replicating swampy conditions. These were grown on for a further 9 days in a glasshouse bay (30/20° C. day/night; 18/6 hours light/dark; 75% humidity). Leptochloa chinensis (LEFCH) and Echinochloa crus-galli (ECHCG) were sown as 2 separate groups of approx 10-20 seeds into pots 13 days prior to application of the test substances, in the same glasshouse conditions as the rice. Therefore, each pot of weeds contained a group of LEFCH and a separate group of ECHCG. All pots of rice and all pots of weeds were flooded to 2-3 cm water depth the day prior to application of the test substances. Growth stages at time of application were as follows: Rice: from 2 leaves on the main stem up to tillering; ECHCG: from 2 leaves on the main stem up to tillering; LEFCH: 2-3 leaves.
(§2) Test solutions were prepared by mixing the appropriate aliquots of the test substances in deionised water to give the desired treatment concentration. Most of the test substances were used as formulated products. Specifically, compound A-4 was applied as the EC050 formulation disclosed in Formulation Example 1 herein (EC=emulsifiable concentrate). Compound A-7 was applied as the EC050 Formulation disclosed in Formulation Example 2 herein. Compound A-9 was applied as the EC050 Formulation disclosed in Formulation Example 3 herein. Pyroxasulfone (a comparator co-herbicide) was applied as the SC050 formulation disclosed in Reference Formulation Example 7 herein (SC=Suspension concentrate). Imazosulfuron (a comparator co-herbicide) was applied as a GR0.25 formulation (GR=granule).
(§3) The test substances which were pure active ingredient (e.g. propyrisulfuron & fenoxasulfone) (labelled as ‘Technical’ in the following results table), were prepared by dissolving in 10.56% Emulsogen EL™ (castor oil ethoxylate, CAS Registry number 61791-12-6), 42.22% N-methylpyrrolidone and 42.22% dipropylene glycol mono-ethyl ether to give a stock solution containing 5% of the test substance and 95% of (Emulsogen EL™, N-methylpyrrolidone and dipropylene glycol mono-ethyl ether).
(§4) Application of the test substances was made by pipetting the required amount of the test solution or the test formulation gently into the flood water of the appropriate pot.
(§5) The test plants were then grown on in the same glasshouse conditions, and watered twice daily keeping the flood water at a depth of 2-3 cm.
(§6) A visual assessment of the % herbicidal damage was made 7 & 14 days after application (DAA), and the results are presented herein as % visual herbicidal damage where 0=no damage to plants and 100=total kill.

[2] = tested on: Leptochloa chinensis (LEFCH); assay: Flooded Leptochloa chinensis, visual herbicidal damage (Biological Example 1, Test 125); assay type: in vivo; conditions: 14 DAA
Experimental: as §1, §2, §3, §4, §5, §6

Rice IR-64 = assay: Flooded transplanted rice, visual herbicidal damage (Biological Example 1, Test 125); assay type: in vivo, variety IR-64 (indica); conditions: 14 DAA, co-herbicide alone 10 g/ha
Experimental: as §1
Test solutions were prepared by mixing the appropriate aliquots of the test substances in deionised water to give the desired treatment concentration. Most of the test substances were used as formulated products. Specifically, compound A-4 was applied as the EC050 formulation disclosed in Formulation Example 1 herein (EC=emulsifiable concentrate). […]

[3] = compound of formula (I) 60 g/ha, no co-herbicide, 0=no damage, 100=total kill
[4] = compound of formula (I) 90 g/ha, no co-herbicide
[5] = compound of formula (I) 120 g/ha, no co-herbicide

Compound | % damage to ECHCG [1, 3] | % damage to ECHCG [1, 4] | % damage to ECHCG [1, 5] | % damage to LEFCH [2, 3] | % damage to LEFCH [2, 4] | % damage to LEFCH [2, 5] | other results
CCc1ccc(-c2ccc(Cl)cc2Cl)cc1C1=C(OC(=O)OC)C(C)(C)OC(C)(C)C1=O [compound A-9] | 15% | 40% | 70% | 80% | 80% | 90% | herbicidal activity against LEFCH ([2]; compound alone (EC formulation) at 60, 90 or 120 g/ha): 80-90%
CCOc1cc(Cl)c(CS(=O)(=O)C2=NOC(C)(C)C2)cc1Cl [fenoxasulfone, reference compound] |  |  |  |  |  |  | % damage to ECHCG ([1]; co-herbicide alone 200 g/ha): 65%; % damage to LEFCH ([2]; co-herbicide alone 200 g/ha): 70%
CCc1ccc(-c2ccc(Cl)cc2Cl)cc1C1C(=O)C(C)(C)OC(C)(C)C1=O [compound A-7] | 35% | 55% | 65% | 0% | 5% | 5% | 
COc1cc(OC)nc(NC(=O)NS(=O)(=O)c2c(Cl)nc3ccccn23)n1 [imazosulfuron, reference compound] |  |  |  |  |  |  | % damage to ECHCG ([1]; co-herbicide alone 80 g/ha): 50%; % damage to LEFCH ([2]; co-herbicide alone 80 g/ha): 0%
Cn1nc(C(F)(F)F)c(CS(=O)(=O)C2=NOC(C)(C)C2)c1OC(F)F [pyroxasulfone, reference compound] |  |  |  |  |  |  | % damage to Rice IR-64 (Rice IR-64): 45%; % damage to ECHCG ([1]; co-herbicide alone 10 g/ha): 60%; % damage to LEFCH ([2]; co-herbicide alone 10 g/ha): 70%
CCc1ccc(-c2ccc(Cl)cc2F)cc1C1C(=O)C(C)(C)OC(C)(C)C1=O [compound A-4] | 55% | 85% | 90% | 0% | 0% | 20% | 
CCCc1ccc2nc(Cl)c(S(=O)(=O)NC(=O)Nc3nc(OC)cc(OC)n3)n2n1 [propyrisulfuron, reference compound] |  |  |  |  |  |  | % damage to ECHCG ([1]; co-herbicide alone 80 g/ha): 80%; % damage to LEFCH ([2]; co-herbicide alone 80 g/ha): 0%
